Patent US9920069B2, “Compounds for treatment of fluoroquinolone-resistant bacteria” (The Board of Trustees of the University of Illinois, priority 2014, dated 2018)
Values after ≈ are worked out from the molar mass of the structure shown. Where two headings read alike, the source gives them in different places.

Columns and labels:
[1] = tested on: S. aureus 29213 (WT GyrA and WT ParC); experiment: microbe, parasite or virus in culture; type: cell-based; details: Staphylococcus aureus; WT GyrA and WT ParC; read-out: MIC against S. aureus 29213
Description: (§1) Susceptibility testing was performed in triplicate using the microdilution broth method as outlined by the Clinical and Laboratory Standards Institute CLSI^52. MH broth was used.

[2] = physchem; details: organic solvent or mixture, thermodynamic from solid
[3] = physchem; details: for Solubility in pH 7.4 PBS: three replicates ± SEM
Description: Enough PBS was added to make a 1 mg/mL solution. Compounds were then assessed by LC-MS and compared to a calibration curve to determine the solubility. […] Data shown is from three independent replicates±SEM. […] Between DMSO additions, the vial was vortexed and sonicated.
The compound was vortexed for ˜30 seconds before being placed into a bath sonicator (Cole Parmer, ultrasonic cleaner) for 1 h. […] The tubes were vortexed again for 30 s before being centrifuged at maximum speed (13,000×g) for 10 minutes. The supernatant was then filtered through a 0.22 μm syringe filter (Millipore Millex MP). […] Three independent replicates of each compound were performed. A calibration curve for each compound was generated from 1-400 μM by dissolving the compound in DMSO and making dilutions of the stock in DMSO. […] The concentration of the samples was calculated based on the calibration curves.

[4] = Pharmacokinetic assessment, serum by HPLC; type: in vivo, C57BL/6 mice; details: mouse serum
Description: FIG. 13. Pharmacokinetic analysis of DNM, DNM-2, and DNM-3. C57/BL6 mice were treated with 50 mg kg^−1 DNM, DNM-2, or DNM-3 via oral gavage. After the indicated time points (15, 30, 60, 120, 240, and 480 min), mice were sacrificed and the serum concentrations of DNM, DNM-2, and DNM-3 was determined by HPLC.
The animal studies (PK, in vivo toxicity and in vivo efficacy) were carried out in strict accordance with the recommendations in the Guide for the Care and Use of Laboratory Animals of the National Institutes of Health. […] In these studies, 10-12 week old female C57BL/6 mice purchased from Charles River were used. DNM, DNM-2, and DNM-3 were formulated as slurries at 8.3 mg mL^−1 in 25% Cremophor RH40/water (v/v). Before beginning the pharmacokinetic assessment, mice were first tested for their ability to tolerate the DNM, DNM-2, and DNM-3 at 50 mg kg^−1 (p.o.). […] At specified time points, mice were sacrificed and blood was collected, centrifuged, and the serum was frozen at −80° C. until analysis. The proteins in a 50 μL aliquot of serum were precipitated by the addition of 50 μL of acetonitrile and the sample was centrifuged to remove the proteins. Serum concentrations of DNM, DNM-2, and DNM-3 were determined by HPLC. PK parameters were determined using GraphPad Prism Version 5.00 for Windows.

[5] = tested on: MRSA clinical isolate SAU.446; experiment: MIC, microdilution broth; type: cell-based, S. aureus; details: Staphylococcus aureus
Description: as §1

[6] = tested on: MRSA clinical isolate SAU.419; experiment: MIC, microdilution broth; type: cell-based, S. aureus; details: Staphylococcus aureus, MRSA, read-out: MIC
Description: as §1

[7] = tested on: MRSA clinical isolate SAU.2996; experiment: MIC, microdilution broth; type: cell-based, S. aureus; details: Staphylococcus aureus, MRSA, read-out: MIC
Description: as §1

[8] = tested on: MRSA clinical isolate SAU.555; experiment: MIC, microdilution broth; type: cell-based, S. aureus; details: Staphylococcus aureus
Description: as §1

[9] = tested on: MRSA clinical isolate SAU.3025; experiment: MIC, microdilution broth; type: cell-based, S. aureus; details: Staphylococcus aureus
Description: as §1

[10] = tested on: MRSA clinical isolate SAU.669; experiment: MIC, microdilution broth; type: cell-based, S. aureus; details: Staphylococcus aureus
Description: as §1

[11] = tested on: MRSA clinical isolate SAU.3021; experiment: MIC, microdilution broth; type: cell-based, S. aureus; details: Staphylococcus aureus, MRSA, read-out: MIC
Description: as §1

[12] = tested on: MRSA clinical isolate SAU.494; experiment: microbe, parasite or virus in culture; type: cell-based, S. aureus; details: Staphylococcus aureus
Description: as §1

[13] = tested on: MRSA clinical isolate SAU.1118; experiment: MIC, microdilution broth; type: cell-based, S. aureus; details: Staphylococcus aureus
Description: as §1

[14] = tested on: MRSA clinical isolate SAU.3024; experiment: MIC, microdilution broth; type: cell-based, S. aureus; details: Staphylococcus aureus
Description: as §1

[15] = tested on: MRSA clinical isolate SAU.708; experiment: microbe, parasite or virus in culture; type: cell-based, S. aureus; details: Staphylococcus aureus
Description: as §1

[16] = tested on: MRSA clinical isolate SAU.495; experiment: microbe, parasite or virus in culture; type: cell-based, S. aureus; details: Staphylococcus aureus
Description: as §1

[17] = tested on: MRSA clinical isolate SAU.492; experiment: microbe, parasite or virus in culture; type: cell-based, S. aureus; details: Staphylococcus aureus
Description: as §1

[18] = tested on: MRSA clinical isolate SAU.491; experiment: microbe, parasite or virus in culture; type: cell-based, S. aureus; details: Staphylococcus aureus
Description: as §1

[19] = tested on: MRSA clinical isolate SAU.489; experiment: microbe, parasite or virus in culture; type: cell-based, S. aureus; details: Staphylococcus aureus
Description: as §1

[20] = tested on: MRSA clinical isolate SAU.709; experiment: microbe, parasite or virus in culture; type: cell-based, S. aureus; details: Staphylococcus aureus
Description: as §1

[21] = tested on: MRSA clinical isolate SAU.493; experiment: microbe, parasite or virus in culture; type: cell-based, S. aureus; details: Staphylococcus aureus
Description: as §1

[22] = tested on: MRSA clinical isolate SAU.496; experiment: microbe, parasite or virus in culture; type: cell-based, S. aureus; details: Staphylococcus aureus
Description: as §1

[23] = tested on: MRSA clinical isolate SAU.710; experiment: microbe, parasite or virus in culture; type: cell-based, S. aureus; details: Staphylococcus aureus
Description: as §1

[24] = biological target: T1, human topoisomerase II (Homo sapiens, UniProt P11388); experiment: Human topoisomerase decatenation assay; type: biochemical; details: lowest inhibiting / highest without significant inhibition
T1 construct: purchased Inspiralis
Description: The decatenation assay was performed with the Human Topo II Decatenation Assay Kit (Inspiralis) according to the manufacturer's instructions with minor modifications. First, a master mix was made containing 2 μL 10× assay buffer (500 mM Tris.HCl, pH 7.5, 1250 mM NaCl, 100 mM MgCl2, 50 mM DTT, 1000 μg/mL albumin), 0.67 μL 30 mM ATP, 1.34 μL 0.1 ng/μL kDNA, and 14.3 μL of nuclease free water per sample is made. DMSO or 30× compound is added to a 0.5 mL Eppendorf tube (0.67 μL per tube). The master mix is then added to each tube (18.3 μL per tube). Finally, 1 U of human topoisomerase (1 μL of 1 U/μL stock) is added to each tube for a final volume of 20 μL. The tubes are then incubated at 37° C. for 30 min. Reactions are stopped by the addition of 20 μL of 24:1 chloroform:isoamyl alcohol and 20 μL of stop dye (40% sucrose, 1 mM EDTA, 100 mM TrisHCl pH 7.5, 0.5 μg/mL bromophenol blue). Samples were run on 1% agarose gels containing 0.5 μg/mL ethidium bromide for 1 h at 110V or until the dye front was approximately halfway down the gel. Gels were imaged on a Molecular Imager Gel Doc XR+ (Biorad).

[25] = tested on: K. pneuomoniae, S. aureus, or M. tuberculosis; details: mice infected with various bacteria; cited from earlier work
[26] = subcutaneously, orally, or by IP injection; cited from earlier work

T1 sequence (P11388 whole entry): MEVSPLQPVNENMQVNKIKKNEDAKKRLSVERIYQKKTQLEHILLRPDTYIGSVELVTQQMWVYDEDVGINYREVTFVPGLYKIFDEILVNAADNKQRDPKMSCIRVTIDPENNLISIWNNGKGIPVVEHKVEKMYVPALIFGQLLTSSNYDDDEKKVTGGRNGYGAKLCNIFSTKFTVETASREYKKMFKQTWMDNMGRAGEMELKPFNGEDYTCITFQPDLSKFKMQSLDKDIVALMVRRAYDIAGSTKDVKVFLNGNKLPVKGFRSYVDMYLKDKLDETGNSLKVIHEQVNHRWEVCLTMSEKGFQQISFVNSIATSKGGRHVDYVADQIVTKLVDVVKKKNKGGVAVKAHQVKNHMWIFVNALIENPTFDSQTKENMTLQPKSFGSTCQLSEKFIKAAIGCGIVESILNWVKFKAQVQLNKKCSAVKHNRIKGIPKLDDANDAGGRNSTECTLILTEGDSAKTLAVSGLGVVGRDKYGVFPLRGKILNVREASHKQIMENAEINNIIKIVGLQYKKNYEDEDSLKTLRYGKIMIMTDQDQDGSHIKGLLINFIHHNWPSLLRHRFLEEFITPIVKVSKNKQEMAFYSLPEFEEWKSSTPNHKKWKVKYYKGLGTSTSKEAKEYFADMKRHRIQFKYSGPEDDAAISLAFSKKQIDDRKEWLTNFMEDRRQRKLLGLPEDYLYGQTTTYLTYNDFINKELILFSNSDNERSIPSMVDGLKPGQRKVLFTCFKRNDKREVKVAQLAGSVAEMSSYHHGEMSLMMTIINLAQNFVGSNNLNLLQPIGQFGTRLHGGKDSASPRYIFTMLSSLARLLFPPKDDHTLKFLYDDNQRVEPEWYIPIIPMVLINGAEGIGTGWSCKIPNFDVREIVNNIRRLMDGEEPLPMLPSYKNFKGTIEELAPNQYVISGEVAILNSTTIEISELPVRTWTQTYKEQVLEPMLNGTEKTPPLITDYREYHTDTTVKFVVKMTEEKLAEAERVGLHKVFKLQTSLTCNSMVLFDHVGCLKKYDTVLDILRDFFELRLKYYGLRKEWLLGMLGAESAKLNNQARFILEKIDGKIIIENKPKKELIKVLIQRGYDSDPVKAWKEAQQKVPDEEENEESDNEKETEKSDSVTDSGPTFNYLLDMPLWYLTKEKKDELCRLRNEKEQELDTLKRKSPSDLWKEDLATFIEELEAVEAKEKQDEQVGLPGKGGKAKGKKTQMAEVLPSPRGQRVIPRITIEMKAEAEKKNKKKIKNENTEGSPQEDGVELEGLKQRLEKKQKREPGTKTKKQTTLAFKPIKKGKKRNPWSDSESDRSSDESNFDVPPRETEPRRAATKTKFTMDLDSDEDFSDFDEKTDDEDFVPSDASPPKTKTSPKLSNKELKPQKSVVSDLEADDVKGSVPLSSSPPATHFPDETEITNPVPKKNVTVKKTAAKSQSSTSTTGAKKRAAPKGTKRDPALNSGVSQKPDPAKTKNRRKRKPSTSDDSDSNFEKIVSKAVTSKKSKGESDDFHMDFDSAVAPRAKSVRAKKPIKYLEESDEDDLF

## CCc1cc(=O)n(C)c2c3c4c(cc12)c(C)cc(=O)n4CO3 [Compound 4]
[1]
  MIC: 8 µg/mL (≈ 27 µM)
[2]
  solubility: 4.7 mM (≈ 1390 µg/mL)
[3]
  Solubility in pH 7.4 PBS: 53 μM

## Cc1cc(=O)n(C)c2c3c4c(cc12)c(C)cc(=O)n4C(C)O3 (stereo not shown) [Compound 5]
[1]
  MIC: 4 µg/mL (≈ 13.5 µM)
[2]
  solubility: 3.4 mM (≈ 1010 µg/mL)

## CCCc1cc(=O)n2c3c(c4c(cc13)c(C)cc(=O)n4C)OC2 [Compound 6]
[1]
  MIC: 16 µg/mL (≈ 51.6 µM)
[2]
  solubility: 6.4 mM (≈ 1990 µg/mL)

## CCCc1cc(=O)n(C)c2c3c4c(cc12)c(C)cc(=O)n4CO3 [Compound 7]
[1]
  MIC: 16 µg/mL (≈ 51.6 µM)
[2]
  solubility: 5.8 mM (≈ 1800 µg/mL)

## CCCCCn1c(=O)cc(C)c2cc3c(C)cc(=O)n4c3c(c21)OC4 [Compound 9]
[1]
  MIC: 32 µg/mL (≈ 94.6 µM)
[2]
  solubility: 26.9 mM (≈ 9100 µg/mL)

## CCCCCCn1c(=O)cc(C)c2cc3c(C)cc(=O)n4c3c(c21)OC4 [Compound 10]
[1]
  MIC: > 64 µg/mL
[2]
  solubility: 56.7 mM (≈ 20000 µg/mL)

## Cc1cc(=O)n2c3c(c4c(cc13)c(C)cc(=O)n4CC(C)C)OC2 [Compound 11]
[1]
  MIC: > 32 µg/mL
[2]
  solubility: 7.1 mM (≈ 2300 µg/mL)

## Cc1cc(=O)n2c3c(c4c(cc13)c(C)cc(=O)n4CC(C)(C)C)OC2 [Compound 12]
[1]
  MIC: 32 µg/mL (≈ 94.6 µM)
[2]
  solubility: 38.7 mM (≈ 13100 µg/mL)

## CCc1cc(=O)n(C)c2c3c4c(cc12)c(CC)cc(=O)n4CO3 [Compound 13]
[1]
  MIC: > 32 µg/mL
[2]
  solubility: 5.2 mM (≈ 1610 µg/mL)
[3]
  Solubility in pH 7.4 PBS: 48 μM

## CCCc1cc(=O)n(C)c2c3c4c(cc12)c(CCC)cc(=O)n4CO3 [Compound 14]
[1]
  MIC: > 32 µg/mL
[2]
  solubility: 18.3 mM (≈ 6190 µg/mL)
[3]; pH 7.4, aqueous buffer, thermodynamic from solid
  solubility at 1 h: < 1 µM

## CCCCn1c(=O)cc(CCC)c2cc3c(CCC)cc(=O)n4c3c(c21)OC4 [Compound 15]
[1]
  MIC: > 32 µg/mL
[2]
  solubility: 4.2 mM (≈ 1600 µg/mL)

## CCc1cc(=O)n2c3c(c4c(cc13)c(C)cc(=O)n4C)OC2 [DNM-3]
[1]
  MIC: 8 µg/mL (≈ 27 µM)
[4]; 50 mg kg^−1 oral dose
  AUC: 4 µg·h/mL
  Cmax / peak serum concentration: 1.26 µg/mL
[4]; 50 mg kg^−1 oral dose, read-out: Cmax / peak serum concentration
  Cmax: 4.3 µM
[4]; 50 mg kg^−1 oral gavage
  AUC: 4 µg·h/mL
  Cmax: 1260 ng/mL
  Tmax: 1.1 h
  t1/2: 1.2 h
[2]
  solubility: 1.3 mM (≈ 385 µg/mL)
[3]
  Solubility in pH 7.4 PBS: 27 μM

## CO[C@@H]1[C@@H](OC(N)=O)[C@@H](O)[C@H](Oc2ccc3c(O)c(NC(=O)c4ccc(O)c(CC=C(C)C)c4)c(=O)oc3c2C)OC1(C)C [Novo, Novobiocin]
[5]
  MIC: 0.5 µg/mL (≈ 0.816 µM)
[6]
  MIC: 0.25 µg/mL (≈ 0.408 µM)
[7]
  MIC: 0.5 µg/mL (≈ 0.816 µM)
[8]
  MIC: 0.25 µg/mL (≈ 0.408 µM)
[9]
  MIC: 0.25 µg/mL (≈ 0.408 µM)
[10]
  MIC: 0.5 µg/mL (≈ 0.816 µM)
[11]
  MIC: 0.25 µg/mL (≈ 0.408 µM)
[12]; read-out: MIC
  MIC: 0.125 µg/mL (≈ 0.204 µM)

## CN[C@H](CC(C)C)C(=O)N[C@H]1C(=O)N[C@@H](CC(N)=O)C(=O)N[C@H]2C(=O)N[C@H]3C(=O)N[C@H](C(=O)N[C@H](C(=O)O)c4cc(O)cc(O)c4-c4cc3ccc4O)[C@H](O)c3ccc(c(Cl)c3)Oc3cc2cc(c3O[C@@H]2O[C@H](CO)[C@@H](O)[C@H](O)[C@H]2O[C@H]2C[C@](C)(N)[C@H](O)[C@H](C)O2)Oc2ccc(cc2Cl)[C@H]1O [VANC, vancomycin, reference compound]
[13]
  MIC: 2 µg/mL (≈ 1.38 µM)
[7]
  MIC: 1 µg/mL (≈ 0.69 µM)
[11]
  MIC: 1 µg/mL (≈ 0.69 µM)
[14]
  MIC: 2 µg/mL (≈ 1.38 µM)
[1]
  MIC: 1 µg/mL (≈ 0.69 µM)
[15]
  MIC: 2 µg/mL (≈ 1.38 µM)
[16]
  MIC: 2 µg/mL (≈ 1.38 µM)
[17]
  MIC: 1 µg/mL (≈ 0.69 µM)
[18]
  MIC: 2 µg/mL (≈ 1.38 µM)
[19]
  MIC: 2 µg/mL (≈ 1.38 µM)
[12]
  MIC: 1 µg/mL (≈ 0.69 µM)
[20]
  MIC: 1 µg/mL (≈ 0.69 µM)
[21]
  MIC: 1 µg/mL (≈ 0.69 µM)
[22]
  MIC: 1 µg/mL (≈ 0.69 µM)
[23]
  MIC: 2 µg/mL (≈ 1.38 µM)

## COc1cccc2c1C(=O)c1c(O)c3c(c(O)c1C2=O)C[C@@](O)(C(=O)CO)C[C@@H]3O[C@H]1C[C@H](N)[C@H](O)[C@H](C)O1 [doxorubicin, reference compound]
[24]
  concentration inhibiting human topoisomerase II: 3 µM

## Cc1cc(=O)n2c3c(c4c(cc13)c(CO)cc(=O)n4C)OC2 [nybomycin]
[25]
  activity in infected mice: no activity
[26]
  tolerability in mice: well tolerated
